Laboratory results as given in US20090082322A1, “Gender Differences in Experimental Aortic Aneurysm Formation” (THE REGENTS OF THE UNIVERSITY OF MICHIGAN, priority 2004, published 2009).

Columns and labels:
[1] = system: ED-1-positive macrophages / elastin in aortic wall; test: Histology and ED-1 macrophage immunohistochemistry of elastase-perfused aortas; assay type: in vivo, Sprague-Dawley rats
From the text: In other experiments, male rats were randomized to implantation of an estrogen pellet or sham implantation (n=13, each). The former involved the subcutaneous implantation of a 21-day slow-release 0.1-mg 17-β-estradiol pellet (Innovative Research of America, Sarasota, Fla.) in the posterior neck. Sham rats underwent the same implantation procedure without insertion of any pellet. This particular estradiol dose results in serum estradiol levels at 2 to 3 weeks of 44.7±6.1 pg/mL compared with 15.0±2.2 pg/mL in control rats (P<0.05). Rat aortas from both groups were subjected to elastase perfusion 5 days later. The aortas were then removed for study 7 or 14 days after elastase perfusion. All excised aortas were fixed in 10% formalin for 18 hours, followed by immersion in 70% ethanol for 24 hours. Aortas were then imbedded in paraffin and 4-μm sections were prepared with hematoxylin and eosin and Verhoeff-Van Gieson stains. Immunohistochemistry was undertaken after deparaffinization, rehydration, and unmasking using Trilogy (Cell Marque Corp, Hot Springs, Ariz.) in a Princess model pressure cooker (Cell Marque). Endogenous peroxidase activity was then blocked using 3% hydrogen peroxide in methanol. To help ensure that rejection was not occurring in elastase-perfused or transplanted animals, anti-T lymphocyte immunohistochemistry was performed. […]

MMP-2 [2] = test: MMP-2 activity in conditioned media of IL-1β stimulated male RASMCs; assay type: cell-based, rat; conditions: 1×10^−10 to 1×10^−6 molar, with IL-1β
Experimental: Experiment I: Adult male and female rat aortic smooth muscle cells (RASMCs) were grown in Dulbecco's modified Eagle medium (DMEM) with 10% fetal bovine serum (FBS). RASMCs at passages four through eight were stimulated in serum-free media for 48 hours with IL-1β at doses encountered in human aortic aneurysms (2 ng/mL). The culture media was collected, and mRNA was extracted from the RASMCs. After reverse transcription to cDNA, gene expression of MMP-2 and TIMP-2 (a major MMP-2 inhibitor) was measured by real-time polymerase chain reaction. MMP-2 protein levels in conditioned media were measured by Western blotting, with MMP-2 and TIMP-2 activity quantified by standard and reverse gelatin zymography. Experiment II: Male RASMCs were incubated in DMEM containing 17-β-estradiol and IL-1β, MMP-2 activity in the conditioned media was then determined.

MMP-2 [3] = test: MMP-2 activity in media of IL-1β stimulated aortic explants from pre-treated male rats; assay type: in vivo, rat
Experimental: Experiment III: Male rats underwent sustained 17-β-estradiol exposure using extended-release, subcutaneously implanted pellets prior to sacrifice and aortic explanation. The explants were stimulated with IL-1β, and MMP-2 activity in the conditioned media was then determined.

MMP-9 [4] = test: MMP-9 activity (gelatin zymography) in media of IL-1β stimulated male RASMCs; assay type: cell-based, Sprague-Dawley rats; conditions: 10^−10 to 10^−6 mol/L, 48 hours with concurrent IL-1β stimulation
Experimental: Experimental interventions were carried out with confluent RASMCs at passages 3 through 8 in serum-free DMEM supplemented with antibiotics. Confluent monolayers of RASMCs were incubated in T-75 plates with IL-1β (2 ng/mL, from Sigma) for 72 hours. This concentration of IL-1β is found in human aortic aneurysms. After 72 hours of IL-1β stimulation, the RASMC-conditioned medium was collected for measurements of TIMP-1 activity, MMP-9 activity, and MMP-9 protein levels. The remaining SMCs were lysed in 1% sodium dodecyl sulfate (SDS), and total cellular protein was determined by a bicinchoninic acid protein assay (Pierce). In separate experiments, the previous protocol was followed, but male RASMCs were incubated with 5 different concentrations of 17-β-estradiol (1×10^−10 to 1×10^−6 mol/L) for 48 hours with concurrent IL-1β stimulation. Zymography supplies were purchased from Novex. MMP distribution after treatment of RASMC with IL-1β and increasing concentrations of 17-β-estradiol was determined. Gelatin substrate zymograms were prepared using precast 10% SDS-polyacrylamide gels containing 1 mg/mL of gelatin. Equal volumes of experimental media samples were diluted into 2× tris-glycine SDS sample buffer and electrophoretically separated under nonreducing conditions. […]

MMP-9 [5] = test: MMP-9 activity (zymography) in media of IL-1β stimulated aortic explants from pretreated male rats; assay type: in vivo, Sprague-Dawley rats; conditions: male rats treated 3 weeks with 0.1 mg 21-day extended release pellet, IL-1β stimulation; control 75.3, p<0.03
Experimental: Zymography supplies were purchased from Novex. MMP distribution after treatment of RASMC with IL-1β and increasing concentrations of 17-β-estradiol was determined. Gelatin substrate zymograms were prepared using precast 10% SDS-polyacrylamide gels containing 1 mg/mL of gelatin. Equal volumes of experimental media samples were diluted into 2× tris-glycine SDS sample buffer and electrophoretically separated under nonreducing conditions. Proteins were renatured in 2.7% Triton X-100, and the gels were incubated overnight at 37° C. in 50 mmol/L tris-HCl containing 5 mmol/L CaCl2 and 2% Brij 35. After overnight staining with Coomassie blue R-250 and de-staining for 4 hours with 10% acetic acid and 40% methanol in water, gelatinase activity was evident by clear bands against a dark blue background. Male Sprague-Dawley rats (190 g to 210 g) were obtained from Charles River Laboratories. Subcutaneous neck implantation of a 21-day slow release 0.1 mg 17-β-estradiol pellet (Innovative Research of America) was performed under general inhalational anesthesia. This particular estradiol dose results in serum estradiol levels at 2 to 3 weeks of 44.7±6.1 pg/mL compared with 15.0±2.2 pg/mL in control rats (p<0.05). Three weeks after pellet implantation, the infrarenal aorta was explanted under general anesthesia. […]

AAAs = conditions: apolipoprotein E-deficient murine model; cited from earlier work

C[C@]12CC[C@@H]3c4ccc(O)cc4CC[C@H]3[C@@H]1CC[C@@H]2O [17-β-estradiol]
elastin fragmentation ([1]; estradiol treated male rats' aortas vs sham): less prominent | ED-1-positive cell counts ([1]; male rats receiving estradiol, sham 5.2±0.5, P=0.0006): 1.8±0.3 cells/HPF | MMP-2 activity in male RASMCs (MMP-2 [2]): not altered | MMP-2 activity in the media of whole-aortic explants (MMP-2 [3]; male rats pre-treated with extended-release s.c. pellets, explants stimulated with IL-1β, control 4.35×10^5, P=0.002): 2.0×10^5 O.D./mg protein | decrease in MMP-2 activity in the media of whole-aortic explants (MMP-2 [3]; male rats pre-treated, vs control): 2 fold | MMP-9 activity in male RASMC media (MMP-9 [4]): no difference | MMP-9 activity in conditioned media of aortic explants (MMP-9 [5]): 29.9 OD×10^3/mg protein | development of AAAs (AAAs): attenuate the development of AAAs
